According to patent US20130030009A1, “METHOD FOR THE TREATMENT AND/OR PREVENTION OF ORAL ALLERGIC SYMPTIONS OF THE LIPS DUE TO ORAL CONTACT WITH A FOOD ALLERGEN” (priority 2010, published 2013):

Tests used:
[1] = when swallowed may include headache, GI upset, itchiness, irritability, rash, muscle pain; cited from earlier work
[2] = system: patients afflicted with oral allergy syndrome; assay: Cromolyn Sodium mouth rinse in patients afflicted with oral allergy syndrome; assay type: in vivo
Source text: Using the teachings of the co-pending patent application entitled “PREPARATIONS FOR TOPICAL PREVENTION AND/OR TREATMENT OF ORAL […] SYMPTOMS DUE TO ORAL CONTACT WITH FRUITS AND/OR VEGETABLES”, filed Dec. […] These patients experienced much relief of their oral allergy and throat allergy symptoms. […] Thus, it seems that sometimes mouth rinsing of Cromolyn Sodium fails to deliver sufficient Cromolyn Sodium to the mast cells of the lip.

O=C(O)c1cc(=O)c2c(OCC(O)COc3cccc4oc(C(=O)O)cc(=O)c34)cccc2o1 [Cromolyn Sodium]
side effects [1]: very uncommon | lip itchiness of internal and external lip surfaces after mouth rinse [2]: some individuals still experienced lip itchiness | relief of oral allergy and throat allergy symptoms [2]: much relief
